Assay results reported in patent publication US20080132415A1, “Method For Increasing Maize Yields” (priority 2004, published 2008).
Read-outs that look alike come from different tables or passages of the source. Marks after values point to notes of the source that are not given here.

Columns and labels:
[1] = test system: Pioneer 33P66 hybrid corn; conditions: applied at V6 growth stage at 1x field use rates, isoxadifen 37 g/ha where included
Method: The study was conducted in Bloomington, DeKalb and Urbana, Ill. to evaluate the crop response when isoxadifen was used with postemergence corn herbicides. Two hybrid corn species with different levels of tolerance were used in the study: Pioneer 33K81, a species sensitive to plant growth regulators (PGRs), isoxazole, amides and sulfonylureas (SUs); and Pioneer 33P66, a tolerant species. Plots were kept weed-free to eliminate any competition from weeds.
The following herbicides and their respective field use rates were used in the study:
rimsufuron—26 g/ha; nicosulfuron+rimsulfuron—39 g/ha; foramsulfuron—37 g/ha; diflufenzopyr+dicamba—294 g/ha; mesotrione—105 g/ha; and dicamba—560 g/ha. One or more of the herbicides were used with or without isoxadifen—37 g/ha. All herbicides were applied at the 1× labeled field use rates.
Timing of the application of the compounds was at the V6 growth stage (i.e., when there were six visible collars of the corn). Additionally, methylated seed oil (MSO)+28% […] (UAN) were applied at a concentration of 1% v/v+2.5% v/v.

[2] = test system: Golden Harvest hybrid corn; format: in vivo
Excerpt: The hybrid corn species Golden Harvest was used in the study.
On one or more of the herbicides were used in combination with the insecticide chlorpyrifos—841 g/ha and with or without isoxadifen—37 g/ha.
A CO2 backpack sprayer was used to apply the compounds at 187 L/ha at 247 kPa.

[3] = test system: Pioneer 33K81 hybrid corn; test: Field study of isoxadifen with postemergence corn herbicides (Example 1), hybrid Pioneer 33K81; format: in vivo
Excerpt: Timing of the application of the compounds was at the V6 growth stage (i.e., when there were six visible collars of the corn). Additionally, methylated seed oil (MSO)+28% ureas and ammonium sulfate (UAN) were applied at a concentration of 1% v/v+2.5% v/v.

[4] = test system: corn hybrids Pioneer 33K81 and Pioneer 33P66; test: Field study of isoxadifen with postemergence corn herbicides (Example 1), both hybrids or hybrid not stated; format: in vivo
[5] = herbicide in combination with chlorpyrifos 841 g/ha and isoxadifen 37 g/ha, seven days post application
[6] = herbicide in combination with chlorpyrifos 841 g/ha, without isoxadifen, seven days post application
[7] = herbicide in combination with chlorpyrifos, without isoxadifen
[8] = percentage of control, herbicide in combination with chlorpyrifos 841 g/ha and isoxadifen 37 g/ha
[9] = percentage of control, herbicide in combination with chlorpyrifos 841 g/ha, without isoxadifen

SMILES	PERCENTAGE OF CORN INJURY Pioneer 33P66 ([1]; 7 days post application) [%]	CORN YIELD - PERCENTAGE OF CONTROL Pioneer 33P66 ([1]; percentage of control) [%]	CORN INJURY Chlor + Isoxadifen ([2]; in vivo)	CORN INJURY Chlorpyrifos ([2]; in vivo) [%]	CORN YIELD Chlor + Isoxadifen ([2]; in vivo)	CORN YIELD Chlorpyrifos ([2]; in vivo) [%]	corn injury compared to the application of the same combination and isoxadifen ([2]; in vivo)	corn yield compared to the application of the same combination and isoxadifen ([2]; in vivo)	PERCENTAGE OF CORN INJURY Pioneer 33K81 ([3]; 7 days post application, applied at V6 growth stage at 1x field use rates, isoxadifen 37 g/ha where included) [%]	CORN YIELD - PERCENTAGE OF CONTROL Pioneer 33K81 ([3]; percentage of control, applied at V6 growth stage at 1x field use rates, isoxadifen 37 g/ha where included) [%]	crop injury when tank-mixed with isoxadifen, compared with the same herbicide without isoxadifen ([4]; both hybrids, 7 days after treatment)	CORN INJURY Chlor + Isoxadifen [2, 5]	CORN INJURY Chlorpyrifos [2, 6] [%]	corn injury compared to the application of the same combination and isoxadifen [2, 7]	corn yield compared to the application of the same combination and isoxadifen [2, 7]	CORN YIELD Chlor + Isoxadifen [2, 8]	CORN YIELD Chlorpyrifos [2, 9] [%]	difference in adding isoxadifen ([4]; hybrid not stated, data not shown)	crop injury when tank-mixed with isoxadifen ([3]; P33K81 hybrid corn, addition of isoxadifen, data not shown)
COc1c(Cl)ccc(Cl)c1C(=O)O [Dicamba, dicamba]	36	89	37 * %	65	86 * %	75	significantly more corn injury	significantly smaller corn yield	25	81	less crop injury								
COc1cc(OC)nc(NC(=O)NS(=O)(=O)c2cc(NC=O)ccc2C(=O)N(C)C)n1 [Foramsulfuron, foramsulfuron]												37 * %	47	significantly more corn injury	significantly smaller corn yield	92 * %	82		
CS(=O)(=O)c1ccc(C(=O)C2C(=O)CCCC2=O)c([N+](=O)[O-])c1 [Mesotrione, mesotrione]												12 * %	34	significantly more corn injury	no significant difference	97%	97	no significant difference	
CCS(=O)(=O)c1cccnc1S(=O)(=O)NC(=O)Nc1nc(OC)cc(OC)n1 [Rimsulfuron, rimsulfuron]												45%	37	no significant difference	significantly smaller corn yield	95 * %	65		less crop injury
